From patent US20220296573A1, “NOVEL COMPOUNDS AND PHARMACEUTICAL COMPOSITIONS THEREOF FOR THE TREATMENT OF INFLAMMATORY DISORDERS” (Galapagos NV, priority 2019, published 2022)

What follows are compounds tested against T1, human IRAK-4 (Homo sapiens, UniProt Q9NWZ3) (assay: Phosphorylation IC50 determination for human IRAK-4 (ADP-Glo Kinase Assay)). Conditions: human IRAK-4, substrate RIP140, Km ATP; read-out: IRAK4 ADPglo biochemical assay IC50.
T1 construct: purchased Carna Biosciences 09 145
T1 sequence (Q9NWZ3 1-460): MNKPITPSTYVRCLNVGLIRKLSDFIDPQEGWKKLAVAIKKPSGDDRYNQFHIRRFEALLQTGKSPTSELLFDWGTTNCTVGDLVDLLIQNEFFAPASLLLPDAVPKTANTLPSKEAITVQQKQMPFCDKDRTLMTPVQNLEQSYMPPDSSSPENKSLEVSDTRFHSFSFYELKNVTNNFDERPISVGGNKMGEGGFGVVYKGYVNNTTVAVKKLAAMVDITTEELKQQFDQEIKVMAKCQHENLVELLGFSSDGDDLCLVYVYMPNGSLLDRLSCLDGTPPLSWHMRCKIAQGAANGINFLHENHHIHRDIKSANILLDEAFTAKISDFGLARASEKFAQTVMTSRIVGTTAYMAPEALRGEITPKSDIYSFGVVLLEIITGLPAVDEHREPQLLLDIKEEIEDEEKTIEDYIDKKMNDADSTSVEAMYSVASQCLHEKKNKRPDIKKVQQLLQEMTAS
Experimental: The phosphorylation of the substrate RIP140 (SEQ ID1) by IRAK4 at Km ATP was detected with the ADP-Glo Kinase Assay (Promega, Cat #V9103), a luminescent kinase assay which measures the ADP formed from a kinase reaction. (Zegzouti et al. 2009) In a second step the kinase reaction was terminated and all the remaining ATP was depleted. In a final step the ADP was converted into ATP and this newly synthesized ATP was measured by using a luciferase/luciferin reaction with a luminescent reader. The luminescent signal positively correlated with kinase activity, in particular kinase inhibition giving a decrease of the luminescent signal.
For the semi-automated assay, the positive control (100% inhibition) was prepared by diluting 10 mM staurosporine stock mixture (20 μL) in water (3.8 mL) and DMSO (180 μL), thus resulting in a […] staurosporine solution at 1% DMSO (final concentration after further dilution in the kinase reaction).
For the automated assay, no pre-dilution of the 10 mM staurosporine stock was made. 10 mM staurosporine was spotted directly in the assay plate using acoustic dispensing and complemented with DMSO to result in a similar final concentration as mentioned above.
For the semi-automated assay, the negative control (0% inhibition) was prepared by mixing water (3.8 mL) and DMSO (200 μL) resulting in a final concentration of 1% DMSO after further dilution in the kinase reaction. For the automated assay no pre-dilution of DMSO was done. 100% DMSO was spotted directly on the assay plate.
The assay buffer solution was prepared at a concentration corresponding to 5 fold the final (most diluted) assay concentration by mixing a solution of 125 mM TRIS pH 7.5+0.05% Triton X-100+2.5 mM EGTA (5.27 mL) with 1M mgCl2 (72 μL), 1M DTT (57.6 μL), and 200 mM MnCl2 (360 μL).
For example, for the semi-automated method, the enzyme-substrate mixture was prepared by mixing water (3999 μL), assay buffer solution (1380 μL), 1 mM RIP140 (138 μL—SEQ ID1), and 200 ng/mL IRAK 4 (3.45 μL Carna Biosciences, 09 145).
For semi-automated method, the ATP mixture was prepared at a concentration corresponding to 2.5 fold the final (most diluted) assay concentration of the semi-automated method and 1.5 fold the final (most diluted) assay concentration of the automated method. For example, for the semi-automated method, the ATP mixture was prepared by mixing water (4126 μL), assay buffer solution (1380 μL), and 10 mM ATP (13.80 μL).
The assay are performed either in a semi-automated or fully automated manner. The assay volume and the incubation time of the ADP detection were different accordingly the method used.
The compounds were prepared as a serial dilution of 10 point dose responses with 1/5 dilution steps in 100% DMSO starting from 2 mM highest concentration, diluted 1/20 in water. 1 μL was transferred dry to the assay plates.
On each assay plate 32 wells of each control (positive & negative) were added, followed by 2 μL enzyme-substrate mixture.
The reaction was started by adding 2 μL diluted ATP (final concentration Km ATP) on the assay plates. Plates were centrifuged for a few seconds at 1000 rpm followed by an incubation at r.t. for 120 min.
The reactions were stopped and the unconsumed ATP was depleted by adding 5 μL ADP-glo Reagent (Promega, Cat #V9103) to the reaction. The plates were quickly centrifuged at 1000 rpm and incubated at r.t. for 40 min corresponding to full ATP depletion.
The ADP was converted back to ATP and luciferase and luciferin were introduced to detect ATP by adding 10 μL kinase detection reagent (Promega, Cat #V9103) to the reaction. The plates were centrifuged for a few seconds at 1000 rpm and incubated at r.t. for a further 30 min.
Luminescent read out was performed on an Envision luminescent reader (Perkin Elmer).
For the automated assay, the compounds were prepared as a serial dilution of 10 point dose responses with 1/5 dilution steps in 100% DMSO starting from 2 mM highest concentration. […]
Compound NC(=O)c1cc2nc(C3COCCO3)cn2cc1NC(=O)c1cccc(C(F)(F)F)n1 (stereo not shown) [Compound 6, 2-(1,4-dioxan-2-yl)-6-[[6-(trifluoromethyl)pyridine-2-carbonyl]amino]imidazo[1,2-a]pyridine-7-carboxamide] has an IC50 of 5 to 10 nM. COc1cc2nc(C3COCCO3)cn2cc1NC(=O)c1cccn(C2CC2)c1=O (single isomer, unassigned) [Compound 7, 1-cyclopropyl-N-[2-(1,4-dioxan-2-yl)-7-methoxy-imidazo[1,2-a]pyridin-6-yl]-2-oxo-pyridine-3-carboxamide] showed an IC50 of 5 to 10 nM. With CC(F)(F)c1cccc(C(=O)Nc2cn3cc(C4COCCO4)nc3cc2C(N)=O)n1 (stereo not shown) [Compound 11, 6-(6-(1,1-difluoroethyl)picolinamido)-2-(1,4-dioxan-2-yl)imidazo[1,2-a]pyridine-7-carboxamide] the IC50 was 5 to 10 nM. For COc1cc2nc(C3COCCO3)cn2cc1NC(=O)c1cccn(C2CCC2)c1=O (stereo not shown) [Compound 5, 1-cyclobutyl-N-[2-(1,4-dioxan-2-yl)-7-methoxy-imidazo[1,2-a]pyridin-6-yl]-2-oxo-pyridine-3-carboxamide], the IC50 was 10 to 50 nM. COc1cc2nc(C3CCS(=O)(=O)CC3)cn2cc1NC(=O)c1cccn(C2CC2)c1=O [Compound 23, 1-cyclopropyl-N-(2-(1,1-dioxidotetrahydro-2H-thiopyran-4-yl)-7-methoxyimidazo[1,2-a]pyridin-6-yl)-2-oxo-1,2-dihydropyridine-3-carboxamide] gave an IC50 of 0.1 to 5 nM. COc1cc2nc(C3CCOCC3)cn2cc1NC(=O)c1cccn(C2CC2)c1=O [Compound 3, (1-cyclopropyl-N-[7-methoxy-2-(oxan-4-yl)imidazo[1,2-a]pyridin-6-yl]-2-oxopyridine-3-carboxamide)] was tested, and the IC50 was 5 to 10 nM. Compound COc1cc2nc(C3CCOCC3)cn2cc1NC(=O)c1cccc(C(F)(F)F)n1 [Compound 2, N-(7-methoxy-2-tetrahydropyran-4-yl-imidazo[1,2-a]pyridin-6-yl)-6-(trifluoromethyl)pyridine-2-carboxamide] has an IC50 of 10 to 50 nM. CNC(=O)c1cc2nc(C3COCCO3)cn2cc1NC(=O)c1cccc(C(F)(F)F)n1 (stereo not shown) [Compound 9, 2-(1,4-dioxan-2-yl)-N-methyl-6-(6-(trifluoromethyl)picolinamido)imidazo[1,2-a]pyridine-7-carboxamide] showed an IC50 of 5 to 10 nM. In the case of COc1cc2nc(C3COCCO3)cn2cc1NC(=O)c1cccn(C2CC2)c1=O (single isomer, unassigned) [Compound 8, 1-cyclopropyl-N-[2-(1,4-dioxan-2-yl)-7-methoxy-imidazo[1,2-a]pyridin-6-yl]-2-oxo-pyridine-3-carboxamide], the IC50 is reported as 5 to 10 nM. For COc1cc2nc(C3COCCO3)cn2cc1NC(=O)c1cccn(C2CC2)c1=O (racemic) [Compound 1, 1-cyclopropyl-N-[2-(1,4-dioxan-2-yl)-7-methoxy-imidazo[1,2-a]pyridin-6-yl]-2-oxo-pyridine-3-carboxamide], the IC50 was 5 to 10 nM.
